pEC50, pIC50: −log10 of the molar value.
Tests used:
[1] = system: Jurkat (clone E6-1) cells with NFAT luciferase reporter; test: Jurkat reporter assay (NFAT Luciferase); type: cell-based; conditions: Homo sapiens; Jurkat NFAT luciferase reporter cells, anti-CD3 stimulation, 6 hr; read-out: Jurkat NFAT EC50
[2] = target: Recombinant human Cbl-b (aa 36-427) (Homo sapiens, UniProt Q13191); test: Cbl-b Biochemical Assay (TR-FRET); conditions: read-out: TR-FRET hCbl-b IC50
[3] = target: T1, Recombinant human c-Cbl (aa 47-435) (Homo sapiens, UniProt P22681); test: c-Cbl Biochemical Assay (TR-FRET); conditions: hc-Cbl Biochemical Assay (TR-FRET); read-out: TR-FRET hcCbl IC50
T1 sequence (P22681 47-435): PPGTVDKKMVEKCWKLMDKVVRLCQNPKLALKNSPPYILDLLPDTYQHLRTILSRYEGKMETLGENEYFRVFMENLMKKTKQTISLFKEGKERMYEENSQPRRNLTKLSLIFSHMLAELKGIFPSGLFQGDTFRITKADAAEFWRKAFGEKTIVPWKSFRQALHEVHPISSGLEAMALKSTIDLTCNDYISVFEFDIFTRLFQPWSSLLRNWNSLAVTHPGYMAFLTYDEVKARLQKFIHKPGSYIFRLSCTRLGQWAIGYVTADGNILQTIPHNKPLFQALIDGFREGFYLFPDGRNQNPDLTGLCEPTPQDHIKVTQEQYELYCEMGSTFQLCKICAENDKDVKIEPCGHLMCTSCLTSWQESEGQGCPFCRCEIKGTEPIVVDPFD

Chain of Recombinant human Cbl-b (aa 36-427) (Q13191 36-427): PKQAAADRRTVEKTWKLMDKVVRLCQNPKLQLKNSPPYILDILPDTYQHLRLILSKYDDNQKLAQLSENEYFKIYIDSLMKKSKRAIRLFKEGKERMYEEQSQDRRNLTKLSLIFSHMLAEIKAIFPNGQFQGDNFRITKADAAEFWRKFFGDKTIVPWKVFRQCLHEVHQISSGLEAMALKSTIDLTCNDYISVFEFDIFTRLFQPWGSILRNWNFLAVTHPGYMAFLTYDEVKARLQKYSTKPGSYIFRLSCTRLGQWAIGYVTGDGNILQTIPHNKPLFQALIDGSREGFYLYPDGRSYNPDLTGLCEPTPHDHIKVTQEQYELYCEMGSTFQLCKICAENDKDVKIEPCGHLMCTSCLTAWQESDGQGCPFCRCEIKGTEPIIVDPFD

Row | Compound | pEC50 [1] | pIC50 [2] | pIC50 [3]
1 | COC[C@H](C)NCc1cc(C)c2oc(-c3cccc(-c4ccc(F)cc4-c4nncn4C)c3)nc2c1 [AGS-4, ({2-[4′-Fluoro-2′-(4-methyl-1,2,4-triazol-3-yl)-[1,1′-biphenyl]-3-yl]-7-methyl-1,3-benzoxazol-5-yl}methyl)[(2S)-1-methoxypropan-2-yl]amine] | > 6.70 | > 6.70 | > 6.70
2 | COC[C@@H](C)NCc1cc(F)c2oc(-c3cc(-c4ccc(F)cc4-c4nncn4C)cc(C4CC4)n3)nc2c1 [AFV-1, [(2-{6-Cyclopropyl-4-[4-fluoro-2-(4-methyl-1,2,4-triazol-3-yl)phenyl]pyridin-2-yl}-7-fluoro-1,3-benzoxazol-5-yl)methyl][(2R)-1-methoxypropan-2-yl]amine] | 6.00 to 6.70 | > 6.70 | 6.00 to 6.70
3 | CO[C@@H](C)[C@H](C)NCc1cc(C)c2oc(-c3cc(-c4ccc(F)cc4-c4nncn4C)cc(C4CC4)n3)nc2c1 [AGC-2, [(2-{6-Cyclopropyl-4-[4-fluoro-2-(4-methyl-1,2,4-triazol-3-yl)phenyl]pyridin-2-yl}-7-methyl-1,3-benzoxazol-5-yl)methyl][(2S,3S)-3-methoxybutan-2-yl]amine] | > 6.70 | > 6.70 | > 6.70
4 | CCNCc1cc2nc(-c3cc(-c4ccc(F)cc4-c4nncn4C)cc(C4CC4)n3)oc2c(F)c1F [AGZ-2, [(2-{6-cyclopropyl-4-[4-fluoro-2-(4-methyl-1,2,4-triazol-3-yl)phenyl]pyridin-2-yl}-6,7-difluoro-1,3-benzoxazol-5-yl)methyl](ethyl)amine] | 6.00 to 6.70 | > 6.70 | 6.00 to 6.70
5 | C[C@H]1CCCN(Cc2cc(C(F)(F)F)c3[nH]c(-c4cccc([C@]5(c6nncn6C)C[C@@H](C)C5)c4)nc3c2)C1 [AAX-12, 6-{[(3S)-3-Methylpiperidin-1-yl]methyl}-2-{3-[(1r,3s)-3-methyl-1-(4-methyl-1,2,4-triazol-3-yl)cyclobutyl]phenyl}-4-(trifluoromethyl)-3H-1,3-benzodiazole] | 5.00 to 6.00 | > 6.70 | 4.30 to 5.00
6 | Cn1cnnc1-c1cc(F)ccc1-c1cc(-c2nc3cc(CN[C@@H]4CCC[C@@H]4O)ccc3o2)cc(C2CC2)c1 [AEQ-2, (1S,2R)-2-[({2-[5-Cyclopropyl-4′-fluoro-2′-(4-methyl-1,2,4-triazol-3-yl)-[1,1′-biphenyl]-3-yl]-1,3-benzoxazol-5-yl}methyl)amino]cyclopentan-1-ol] | > 6.70 | > 6.70 | > 6.70
7 | Cn1cnnc1-c1cc(F)ccc1-c1cccc(-c2nc3cc(CN[C@@H]4CCC[C@@H]4O)cc(F)c3o2)c1 [ED-7, (1S,2R)-2-(((7-Fluoro-2-(4′-fluoro-2′-(4-methyl-4H-1,2,4-triazol-3-yl)-[1,1′-biphenyl]-3-yl)benzo[d]oxazol-5-yl)methyl)amino)cyclopentan-1-ol] | > 6.70 | > 6.70 | > 6.70
8 | COc1cc(CNCCC2CCC2)cc2nc(-c3cccc(-c4ccc(F)cc4-c4nncn4C)c3)oc12 [GG-2, 2-Cyclobutyl-N-((2-(4′-fluoro-2′-(4-methyl-4H-1,2,4-triazol-3-yl)-[1,1′-biphenyl]-3-yl)-7-methoxybenzo[d]oxazol-5-yl)methyl)ethan-1-amine] | 6.00 to 6.70 | > 6.70 | > 6.70
9 | Cn1cnnc1-c1cc(F)ccc1-c1cccc(-c2cn3cc(CO)ccc3n2)c1 [FZ-5, (2-(4′-Fluoro-2′-(4-methyl-4H-1,2,4-triazol-3-yl)-[1,1′-biphenyl]-3-yl)imidazo[1,2-a]pyridin-6-yl)methanol] | 4.30 to 5.00 | 5.00 to 6.00 | 4.30 to 5.00
10 | COc1cc(CNCCOC(C)C)cc2nc(-c3cccc(-c4ccc(F)cc4-c4nncn4C)c3)oc12 [GE-2, N-((2-(4′-Fluoro-2′-(4-methyl-4H-1,2,4-triazol-3-yl)-[1,1′-biphenyl]-3-yl)-7-methoxybenzo[d]oxazol-5-yl)methyl)-2-isopropoxyethan-1-amine, formic Acid] | 5.00 to 6.00 | > 6.70 | 6.00 to 6.70

The next lines start with the values.

Row | pEC50 [1] | pIC50 [2] | pIC50 [3] | Compound
11 | > 6.70 | > 6.70 | > 6.70 | Cn1cnnc1-c1cc(F)ccc1-c1cc(-c2nc3cc(CNCC4(O)CCC4)cc(F)c3o2)nc(C2CC2)c1 [AFI-1, 1-({[(2-{6-Cyclopropyl-4-[4-fluoro-2-(4-methyl-1,2,4-triazol-3-yl)phenyl]pyridin-2-yl}-7-fluoro-1,3-benzoxazol-5-yl)methyl]amino}methyl)cyclobutan-1-ol]
12 | 5.00 to 6.00 | > 6.70 | 6.00 to 6.70 | Cn1cnnc1-c1cc(F)ccc1-c1cccc(-c2nc3cc([C@@H](CO)N4CCC4)cc(C(F)(F)F)c3o2)c1 (single isomer, unassigned) [DO-7]
13 | > 6.70 | > 6.70 | > 6.70 | Cn1cnnc1-c1cc(F)ccc1-c1cccc(-c2nc3cc(CNC[C@@H](O)C(F)(F)F)cc(C(F)(F)F)c3o2)c1 [CR-3, (R)-1,1,1-trifluoro-3-(((2-(4′-fluoro-2′-(4-methyl-4H-1,2,4-triazol-3-yl)-[1,1′-biphenyl]-3-yl)-7-(trifluoromethyl)benzo[d]oxazol-5-yl)methyl)amino)propan-2-ol]
14 | 5.00 to 6.00 | 6.00 to 6.70 | 6.00 to 6.70 | Cn1cnnc1-c1cc(F)ccc1-c1cc(-c2nc3cc(CO)cc(F)c3o2)nc(C2CC2)c1 [AFA-2, (2-{6-Cyclopropyl-4-[4-fluoro-2-(4-methyl-1,2,4-triazol-3-yl)phenyl]pyridin-2-yl}-7-fluoro-1,3-benzoxazol-5-yl)methanol]
15 | 6.00 to 6.70 | > 6.70 | > 6.70 | COc1cc(CN[C@@H]2CCC[C@@H]2O)cc2nc(-c3cccc([C@]4(c5nncn5C)C[C@@H](C)C4)c3)oc12 [AEC-2]
16 | 5.00 to 6.00 | > 6.70 | 6.00 to 6.70 | COC1(CN[C@H](C)c2cc(F)c3oc(-c4cc(-c5ccc(F)cc5-c5nncn5C)cc(C5CC5)n4)nc3c2)CCC1 [AFT-1, [(1R)-1-(2-{6-Cyclopropyl-4-[4-fluoro-2-(4-methyl-1,2,4-triazol-3-yl)phenyl]pyridin-2-yl}-7-fluoro-1,3-benzoxazol-5-yl)ethyl][(1-methoxycyclobutyl)methyl]amine]
17 | 5.00 to 6.00 | > 6.70 | 6.00 to 6.70 | Cn1cnnc1-c1cc(F)ccc1-c1cccc(-c2nc3cc(CO)cc(C(C)(F)F)c3o2)c1 [FF-6, (7-(1,1-Difluoroethyl)-2-(4′-fluoro-2′-(4-methyl-4H-1,2,4-triazol-3-yl)-[1,1′-biphenyl]-3-yl)benzo[d]oxazol-5-yl)methanol]
18 | > 6.70 | > 6.70 | > 6.70 | Cn1cnnc1-c1cc(F)ccc1-c1cccc(-c2nc3cc(CN[C@@H]4CCC[C@@H]4O)cc(C(F)F)c3o2)c1 [EY-2, (1S,2R)-2-(((7-(Difluoromethyl)-2-(4′-fluoro-2′-(4-methyl-4H-1,2,4-triazol-3-yl)-[1,1′-biphenyl]-3-yl)benzo[d]oxazol-5-yl)methyl)amino)cyclopentan-1-ol]
19 | 5.00 to 6.00 | > 6.70 | 5.00 to 6.00 | Cn1cnnc1-c1cc(F)ccc1-c1cccc(-c2nc3cc(CNCCO)cc(C(F)(F)F)c3o2)c1 [AN-2, 2-(((2-(4′-Fluoro-2′-(4-methyl-4H-1,2,4-triazol-3-yl)-[1,1′-biphenyl]-3-yl)-7-(trifluoromethyl)benzo[d]oxazol-5-yl)methyl)amino)ethan-1-ol]

Reference: US20250163038A1, “CBL-B MODULATORS AND USES THEREOF” (Nimbus Clio, Inc., priority 2021, published 2025)
